Assay: Effect of surfactants on stability of citric acid solutions, accelerated aging on a hot plate
Assay type: physicochemical
Description: In the following example, the stability of solutions containing an acid component and different surfactants (surfactants) was evaluated. Solutions of 4.4% citric acid and 0.5% surfactant were prepared. The solutions were placed in clear glass bottles, and the bottles were placed on a hot plate to approximate accelerated aging conditions. The temperature of the liquids in the bottle was about 60° C., although some variations occurred depending upon the position of the bottle.

Sequence: POLOXAMER 237
- Observations (stability of solution): Slightly cloudy after 64 days.

Sequence: POLOXAMER 407
- Observations (stability of solution): Yellow precipitate formed at bottom
